These results are taken from BindingDB's records for doi:10.1016/j.bmc.2006.06.019 (University of Tennessee Health Science Center, 2006).

The target of the experiment is T1, Androgen receptor (Rattus norvegicus, UniProt P15207).
T1 sequence (P15207 whole entry): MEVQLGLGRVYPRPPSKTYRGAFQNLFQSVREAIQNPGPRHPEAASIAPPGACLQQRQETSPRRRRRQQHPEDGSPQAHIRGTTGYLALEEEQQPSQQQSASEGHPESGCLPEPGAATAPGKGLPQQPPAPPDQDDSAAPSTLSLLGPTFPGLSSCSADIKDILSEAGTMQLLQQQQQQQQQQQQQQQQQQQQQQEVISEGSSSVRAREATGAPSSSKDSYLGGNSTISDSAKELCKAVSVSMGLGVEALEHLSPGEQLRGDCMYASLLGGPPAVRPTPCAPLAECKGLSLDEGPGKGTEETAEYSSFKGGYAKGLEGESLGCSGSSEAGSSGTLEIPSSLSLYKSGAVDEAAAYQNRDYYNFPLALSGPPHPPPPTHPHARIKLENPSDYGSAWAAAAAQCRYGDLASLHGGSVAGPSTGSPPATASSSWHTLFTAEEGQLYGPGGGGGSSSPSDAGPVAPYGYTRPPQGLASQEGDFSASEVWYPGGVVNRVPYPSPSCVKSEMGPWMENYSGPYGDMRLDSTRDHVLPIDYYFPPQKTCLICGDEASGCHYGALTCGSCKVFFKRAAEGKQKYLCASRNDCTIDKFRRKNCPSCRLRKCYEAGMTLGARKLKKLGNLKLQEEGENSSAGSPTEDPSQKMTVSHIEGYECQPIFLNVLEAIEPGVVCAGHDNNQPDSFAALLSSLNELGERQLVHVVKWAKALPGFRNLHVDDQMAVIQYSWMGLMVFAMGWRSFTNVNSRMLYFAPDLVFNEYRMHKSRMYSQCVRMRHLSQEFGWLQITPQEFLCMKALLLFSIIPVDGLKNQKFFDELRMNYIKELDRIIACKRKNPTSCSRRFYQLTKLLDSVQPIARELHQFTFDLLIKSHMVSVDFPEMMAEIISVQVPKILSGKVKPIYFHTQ
As to the kind of experiment: Competitive Radioligand Displacement Assay. As to conditions: pH 7.4; 4 °C. On the procedure: The Ki values were determined by the application of the Cheng-Prusoff equation: Ki = (IC50 x Kd)/(Kd+[L]) where [L] is the concentration of [3H]MIB (1 nM ) and Kd is the dissociation constant of the [3H]MIB determined in the saturation analysis (Kd=0.19 nM for MIB).

`C[C@@](O)(COc1ccc(N=C=S)cc1)C(=O)Nc1ccc([N+](=O)[O-])c(C(F)(F)F)c1` [(2R)-2-hydroxy-3-(4-isothiocyanatophenoxy)-2-methyl-N-[4-nitro-3-(trifluoromethyl)phenyl]propanamide] registered a Ki of 36.2 nM.
In turn, `C[C@](O)(CSc1ccc(N=C=S)cc1)C(=O)Nc1ccc([N+](=O)[O-])c(C(F)(F)F)c1` [(2R)-2-hydroxy-3-[(4-isothiocyanatophenyl)sulfanyl]-2-methyl-N-[4-nitro-3-(trifluoromethyl)phenyl]propanamide] displayed a Ki of 54.8 nM.
`C[C@](O)(COc1ccc(N=C=S)c(F)c1)C(=O)Nc1ccc([N+](=O)[O-])c(C(F)(F)F)c1` [(2S)-3-(3-fluoro-4-isothiocyanatophenoxy)-2-hydroxy-2-methyl-N-[4-nitro-3-(trifluoromethyl)phenyl]propanamide] displayed a Ki of 12.6 nM.

As usually defined, the Ki is the dissociation constant of the complex between target and ligand, obtained from inhibition or displacement. Low readings indicate tighter binding, high ones weaker binding.
